The structures appear in SMILES notation. Marks after values point to notes of the source that are not given here.

A short description of data set [1]: Serum hepatotoxic parameters (AST, ALT) in rats after hepatectomy. It counts as in vivo, Male Sprague Dawley rats. The following applies: for ALT / AST: serum, end of experiment. The protocol:
(§1) Male Sprague Dawley rats were purchased from Central Lab. Animal Inc., Korea. Test animals were adapted to an animal facility where temperature was maintained at 22±2° C., humidity at 55±5%, and artificial illumination was provided for 12 hours a day, at least for a week before being used in the experiment. The rats weighed 230-260 g at the time when partial hepatectomy was performed. Filtered tap water and solid regular rat chow were provided freely. For the animal group that was supposed to be treated with betaine, betaine purchased from Sigma, USA, was dissolved in filtered tap water at the concentration of 1% and provided to the group as drinking water. Betaine was administered after partial hepatectomy was conducted. In some experiments, betaine containing drinking water was provided to the animal group from 2 weeks before partial hepatectomy to increase the effect of betaine.
(§2) Partial hepatectomy was performed according to the method originally introduced by Higgins and Anderson (Arch Path, 12; 186, 1931). The rat was anesthetized lightly with ether, and then the middle line of abdomen was incised approximately 3 cm. First, the skin was cut and then abdominal muscle was incised carefully not to damage internal organs. The incised upper part was lifted up by using a pincette to cut the connective tissues connected with diaphragm supporting liver tissue using scissors. Light pressure was applied to the surrounding area of the incision line to expose median lobe and left lateral lobe taking about 70 volume % of the total hepatic lobes. Connective tissues of each hepatic lobe were carefully removed and tied with suture to close the blood vessel, followed by elimination of the exposed hepatic lobe. Muscles and skin of the incised area were stitched up with suture. The incised area was sterilized with 70% ethyl alcohol to prevent infection. For the control group, abdominal incision was simply performed and then stitched up (Sham).
Alanine aminotransferase (ALT) activity and aspartate aminotransferase (AST) activity were measured by the method of Reitman and Frankel (Amer J Clin Pathol 28; 56, 1957) using spectrophotometer. ALT, AST substrate solutions and an aliquot of serum were added to a test tube, followed by incubation at 37° C. Upon completion of the reaction, the color developing agent and 0.4 N NaOH were added thereto, followed by measurement of absorptivities at 520 nm. The activity of each enzyme was calculated based on the standard calibration curve generated by using pyruvate as a substrate.
Male rats were randomly divided into 4 groups of 4 rats each. Group 1, the control group, had laparotomy alone without damaging internal organs and then the opening was sealed (Sham group). Group 2 was treated with betaine after laparotomy (Sham+Betaine group). Group 3 had two-thirds (⅔) partial hepatectomy (PH group), and Group 4 was treated with betaine after ⅔ partial hepatectomy (PH+Betaine group). For the administration of betaine to the groups that had laparotomy only or partial hepatectomy, 1% betaine solution was provided as drinking water. For other groups, filtered tap water was provided as drinking water.
At the end of the experiment, hepatotoxic parameters in serum were measured.
In Table 2, each group was composed of 4 rats. Value is mean±standard deviation. Statistically significant difference was not shown between different groups (Oneway ANOVA followed by Neuman Keul Multiple range test, P>0.05).

Data set [2] has as its system resected liver. The experiment in a line: Liver weight increase in the rat after 2/3 partial hepatectomy or sham laparotomy. It counts as in vivo, Male Sprague Dawley rats. The method, then: Male Sprague Dawley rats were purchased from Central Lab. Animal Inc., Korea. Test animals were adapted to an animal facility where temperature was maintained at 22±2° C., humidity at 55±5%, and artificial illumination was provided for 12 hours a day, at least for a week before being used in the experiment. The rats weighed 230-260 g at the time when partial hepatectomy was performed. Filtered tap water and solid regular rat chow were provided freely. For the animal group that was supposed to be treated with betaine, betaine purchased from Sigma, USA, was dissolved in filtered tap water at the concentration of 1% and provided to the group as drinking water. Betaine was administered after partial hepatectomy was conducted. In some experiments, betaine containing drinking water was provided to the animal group from 2 weeks before partial hepatectomy to increase the effect of betaine. Partial hepatectomy was performed according to the method originally introduced by Higgins and Anderson (Arch Path, 12; 186, 1931). The rat was anesthetized lightly with ether, and then the middle line of abdomen was incised approximately 3 cm. First, the skin was cut and then abdominal muscle was incised carefully not to damage internal organs. The incised upper part was lifted up by using a pincette to cut the connective tissues connected with diaphragm supporting liver tissue using scissors. Light pressure was applied to the surrounding area of the incision line to expose median lobe and left lateral lobe taking about 70 volume % of the total hepatic lobes. Connective tissues of each hepatic lobe were carefully removed and tied with suture to close the blood vessel, followed by elimination of the exposed hepatic lobe. Muscles and skin of the incised area were stitched up with suture. The incised area was sterilized with 70% ethyl alcohol to prevent infection. For the control group, abdominal incision was simply performed and then stitched up (Sham). Male rats were randomly divided into 4 groups of 4 rats each. Group 1, the control group, had laparotomy alone without damaging internal organs and then the opening was sealed (Sham group). Group 2 was treated with betaine after laparotomy (Sham+Betaine group). Group 3 had two-thirds (⅔) partial hepatectomy (PH group), and Group 4 was treated with betaine after ⅔ partial hepatectomy (PH+Betaine group). For the administration of betaine to the groups that had laparotomy only or partial hepatectomy, 1% betaine solution was provided as drinking water. For other groups, filtered tap water was provided as drinking water. In Table 1, the values on day 0 indicate the relative liver weight (liver/weight percentage) in the normal rats not having the surgery. Each group was composed of 4 rats except that 8 rats were used for the calculation for day 0 values. Value is mean±standard deviation. * Statistically significant difference between the group treated with betaine and the group without betaine treatment (Student's t-test, P<0.05). […] SH: Sham, PH: Partial hepatectomy. The number in parenthesis indicates % to the SH group.

Data set [3] has as its system PCNA (proliferating cell nuclear antigen). The experiment in a line: PCNA expression in liver after partial hepatectomy (Western blotting). Type of data set: in vivo, rat. The following applies: for PCNA expression, increase compared with tap water group: 1% betaine from 2 weeks before hepatectomy; for PCNA expression compared with tap water group: 1% betaine in drinking water after hepatectomy. The method, then:
as §1, §2
(§3) Cytosolic fraction was prepared from the excised liver using the standard method. The protein of cytosol was separated by SDS-PAGE, followed by electroblotting, and then transferred to nitrocellulose membrane. The membrane was treated with PBS-T buffer containing 5% nonfat milk at 4° C. for overnight. The nitrocellulose membrane was reacted with the primary antibody diluted with 5% bovine serum albumin. The primary antibodies used herein were mouse monoclonal anti-cyclin D1 serum (Santa Cruz Biotechnology, CA, U.S.A.) and rabbit polyclonal anti-human PCNA (Santa Cruz Biotechnology, CA, U.S.A.). After washing twice with PBS-T, the membrane was treated with the secondary antibody horseradish peroxidase-conjugated goat anti-rabbit IgG (Pierce Biotechnology, Rockford, Ill., U.S.A.). […]

Data set [4] concerns cyclin D1. As to the kind of experiment: Cyclin D1 expression in liver after partial hepatectomy (Western blotting). It counts as in vivo, rat. The method, then: as §1, §2, §3
On the technique in general: In western blotting, separated proteins are transferred to a membrane and probed.

[5] abbreviates: Sham + 1% betaine in drinking water.
Setting [6] is: partial hepatectomy + 1% betaine in drinking water.
[7] abbreviates: 2/3 partial hepatectomy + 1% betaine in drinking water after surgery, day 7.

For the compound `C[N+](C)(C)CC(=O)[O-]` [Betaine, trimethylglycine], the “effect on serum AST and ALT activities” value in data set [1] (1% betaine in drinking water, sham or hepatectomized rats) is “did not affect serum AST and ALT activities”. Besides, the ALT in data set [1] (setting [5]) came out at 22 ± 2 units/ml; in data set [1] (setting [6]), 27 ± 2 units/ml. For the same compound, the AST in data set [1] (setting [5]) stood at 83 ± 3 units/ml; in data set [1] (setting [6]) it was 78 ± 11 units/ml. For the same compound, the “relative liver weight (liver/weight percentage)” value in data set [2] (2/3 partial hepatectomy + 1% betaine in drinking water after surgery, day 1) was 1.47 ± 0.05%; in data set [2] (2/3 partial hepatectomy + 1% betaine in drinking water after surgery, day 2), 1.98 ± 0.05* %; in data set [2] (setting [7]), 3.17 ± 0.06*, a %; in data set [2] (Sham (laparotomy only) + 1% betaine in drinking water, day 7) it was 3.30 ± 0.10a %; in data set [2] (Sham (laparotomy only) + 1% betaine in drinking water, day 7, listed as betaine), “did not affect the relative liver weight”. For the same compound, the “relative liver weight, % to the SH group” value in data set [2] (setting [7]) is reported as “(94%)”; in data set [2] (2/3 partial hepatectomy + 1% betaine in drinking water after surgery, day 7, listed as betaine), 94%; in data set [2] (Sham + 1% betaine in drinking water, day 7), “(98%)”. Besides, the results for the “PCNA expression, increase compared with tap water group” value in data set [3] (24 hours after hepatectomy (FIG. 1b)) and in data set [3] (48 hours after hepatectomy (FIG. 1b)) were 190% and 150%, respectively. The “PCNA expression compared with tap water group” value in data set [3] (24 hours (FIG. 1a)) and in data set [3] (48 hours (FIG. 1a)) was “significantly increased” throughout. In addition, the “cyclin D1 expression, higher than tap water group” value in data set [4] (betaine from 2 weeks before hepatectomy, 12th hour after hepatectomy (FIG. 2)) is 50%. The “cyclin D1 expression compared with tap water group” value is reported as “remained elevated” in data set [4] (betaine from 2 weeks before hepatectomy, 24 hours after hepatectomy (FIG. 2)); “difference between the two groups disappeared” in data set [4] (betaine from 2 weeks before hepatectomy, 48 hours after hepatectomy (FIG. 2)); “no significant difference” in data set [4] (normal rats without hepatectomy, betaine in drinking water, 0 hour (FIG. 2)).

For the origin of these results see patent publication US20140080907A1, “LIVER REGENERATION ACCELERATOR COMPRISING BETAINE” (SNU R&DB FOUNDATION, priority 2009, published 2014).
